In US9708336B2, “Metallo-beta-lactamase inhibitors” (priority 2014, dated 2017):
Like-named read-outs stand apart in the source and are kept apart here.

How the values were obtained:
NDM-1 = NDM-1 (Klebsiella pneumoniae, UniProt C7C422); assay: biochemical; type: biochemical; conditions: fluorescence assay with CCF2-FA substrate; read-out: NDM-1 IC50
Protocol: Enzyme Activity: Determination of IC50
The Class B enzyme activities were measured in the presence of the test inhibitor in a fluorescence assay against a commercially available substrate consisting of a cephalosporin core linking 7-hydroxycoumarin to fluorescein (CCF2-FA). The enzyme (NDM-1, IMP-1 or VIM-1) and the substrate were diluted in 100 mM KH2PO4 buffer (pH 7) containing 0.005% Tween-20 and 10 μM ZnSO4. […] The test inhibitor was dissolved in dimethylsulfoxide and diluted 1:50 in the assay, resulting in a final concentration range of 20 uM to 0.00063 uM. In a 384-well microplate, the test inhibitor was incubated with the metallo-β-lactamase enzyme and the substrate for 2 hours at 25° C. Fluorescence at 460 nm following excitation at 405 nm was measured. The IC50 value was determined from semi-logarithmic plots of enzyme inhibition versus inhibitor concentration, with a curve generated using a 4-parameter fit.

[1] = test system: Escherichia coli expressing NDM-1 (CLB30016); assay: Antibiotic potentiation activity: synergistic concentration (MITC95) with imipenem, OD600 growth; type: cell-based; conditions: CLB30016 (NDM-1), 95% inhibition of bacterial growth
In short: (§1)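 Bacteria were grown overnight on agar at 35 °C, diluted 1:100 from saline into 1.1× CAMHB, then given compound with or without imipenem (4 μg/ml in assay, optionally 1 μg/ml). Endpoint: absorbance at 22–24 h.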

[2] = test system: Serratia marcescens expressing IMP-1 (CL5741); assay: as above; type: cell-based; conditions: CL5741 (IMP-1), 95% inhibition of bacterial growth
In short: as §1

[3] = test system: Klebsiella pneumoniae expressing VIM-1 (IHMA599644); assay: as above; type: cell-based; conditions: IHMA599644 (VIM-1), 95% inhibition of bacterial growth
In short: as §1

IMP-1 = IMP-1 (Serratia marcescens, UniProt P52699); assay: biochemical; type: biochemical; conditions: fluorescence assay with CCF2-FA substrate; read-out: IMP-1 IC50
VIM-1 = VIM-1 (Pseudomonas aeruginosa (strain ATCC 15692 / DSM 22644 / CIP 104116 / JCM 14847 / LMG 12228 / 1C / PRS 101 / PAO1), UniProt A0A0F7KYQ8); assay: Enzyme activity: determination of IC50, fluorescence assay with CCF2-FA substrate (VIM-1); type: biochemical
[4] = fluorescence assay with CCF2-FA substrate, read-out: VIM-1 IC50
[5] = VIM-1 IC50, fluorescence assay with CCF2-FA substrate

NDM-1, sequence (C7C422 whole entry, looked up, species assumed): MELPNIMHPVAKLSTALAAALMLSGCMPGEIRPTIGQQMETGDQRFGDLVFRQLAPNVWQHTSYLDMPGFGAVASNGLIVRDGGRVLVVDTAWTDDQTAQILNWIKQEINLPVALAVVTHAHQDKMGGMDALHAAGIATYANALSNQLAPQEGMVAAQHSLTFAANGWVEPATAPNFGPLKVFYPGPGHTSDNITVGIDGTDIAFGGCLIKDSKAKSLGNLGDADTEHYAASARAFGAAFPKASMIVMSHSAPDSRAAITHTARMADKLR
IMP-1, sequence (P52699 whole entry, looked up): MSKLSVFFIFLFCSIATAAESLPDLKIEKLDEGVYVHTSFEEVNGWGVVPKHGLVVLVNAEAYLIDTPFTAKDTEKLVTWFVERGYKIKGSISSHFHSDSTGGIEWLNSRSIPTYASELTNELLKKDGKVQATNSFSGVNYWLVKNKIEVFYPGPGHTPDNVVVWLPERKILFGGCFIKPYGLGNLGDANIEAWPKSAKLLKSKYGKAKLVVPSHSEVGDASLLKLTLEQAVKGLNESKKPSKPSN

Row | SMILES | IC50 (NDM-1) [nM] | Escherichia coli MITC95 [1] [µM] | Serratia marcescens MITC95 [2] [µM] | Klebsiella pneumoniae MITC95 [3] [µM] | IC50 (IMP-1) [nM] | IC50 (VIM-1; [4]) [nM] | IC50 (VIM-1; [5]) [nM]
1 | NC1CCC(N2CCC(c3ccc(-c4ccc(C(F)(F)F)c(S(N)(=O)=O)c4-c4nnn[nH]4)cc3)CC2)C1 (stereo not drawn) [Example 786, 4′-[1-(3-aminocyclopentyl)piperidin-4-yl]-2-(1H-tetrazol-5-y)-4-(trifluoromethyl)biphenyl-3-sulfonamide] | 6.2 | 1.563 | 3.125 | 50 | 2.08 | 12 | 
2 | NCC1CCC(N2CCC(c3ccc(-c4ccc(C(F)(F)F)c(S(N)(=O)=O)c4-c4nnn[nH]4)cc3)CC2)CC1 (stereo not drawn) [Example 787, 4′-{1-[4-(aminomethyl)cyclohexyl]piperidin-4-yl}-2-(1H-tetrazol-5-yl)-4-(trifluoromethyl)biphenyl-3-sulfonamide] | 7.09 | 1.563 | 3.125 | 25 | 1.71 | 8.1 | 
3 | NS(=O)(=O)c1c(C(F)(F)F)ccc(-c2ccc(C3CCN(C4CC5CCC4N5)CC3)cc2)c1-c1nnn[nH]1 (stereo not drawn) [Example 788, 4′-[1-(7-azabicyclo[2.2.1]hept-2-yl)piperidin-4-yl]-2-(1H-tetrazol-5-yl)-4-(trifluoromethyl)biphenyl-3-sulfonamide] | 2.83 | 6.25 | 6.25 | >200 | 0.438 |  | 35.7
4 | NS(=O)(=O)c1c(C(F)(F)F)ccc(-c2ccc(C3CCN(C4CCNC4)CC3)cc2)c1-c1nnn[nH]1 (stereo not drawn) [Example 789, 4′-(1-pyrrolidin-3-ylpiperidin-4-yl)-2-(1H-tetrazol-5-yl)-4-(trifluoromethyl)biphenyl-3-sulfonamide] | 2.4 | 3.125 | 3.125 | 100 | 0.472 | 16.5 | 
5 | NC1CC(N2CCC(c3ccc(-c4ccc(C(F)(F)F)c(S(N)(=O)=O)c4-c4nnn[nH]4)cc3)CC2)C1 (stereo not drawn) [Example 790, 4′-[1-(3-aminocyclobutyl)piperidin-4-yl]-2-(1H-tetrazol-5-yl)-4-(trifluoromethyl)biphenyl-3-sulfonamide] | 3.57 | 0.7813 | 3.125 | 12.5 | 0.871 | 7.26 | 
6 | NCCC1CCC(N2CCC(c3ccc(-c4ccc(C(F)(F)F)c(S(N)(=O)=O)c4-c4nnn[nH]4)cc3)CC2)CC1 (stereo not drawn) [Example 792, 4′-{1-[4-(2-aminoethyl)cyclohexyl]piperidin-4-yl}-2-(1H-tetrazol-5-yl)-4-(trifluoromethyl)biphenyl-3-sulfonamide] | 7.31 | 3.125 | 3.125 | 25 | 1.55 | 4.38 | 
7 | NS(=O)(=O)c1c(C(F)(F)F)ccc(-c2ccc(C3CCN(CCC4CCNCC4)CC3)cc2)c1-c1nnn[nH]1 [Example 793, 4′-[1-(2-piperidin-4-ylethyl)piperidin-4-yl]-2-(1H-tetrazol-5-yl)-4-(trifluoromethyl)biphenyl-3-sulfonamide] | 7 | 1.563 | 3.125 | 25 | 1.02 | 4.66 | 
8 | NC1CCC(N2CCC(c3ccc(-c4ccc(C(F)(F)F)c(S(N)(=O)=O)c4-c4nnn[nH]4)cc3)CC2)CC1 (stereo not drawn) [Example 794, 4′-[1-(4-aminocyclohexyl)piperidin-4-yl]-2-(1H-tetrazol-5-yl)-4-(trifluoromethyl)biphenyl-3-sulfonamide] | 6.44 | 1.563 | 3.125 | 50 | 1.76 | 11 | 
9 | NS(=O)(=O)c1c(C(F)(F)F)ccc(-c2ccc(C3CCN(CC4CCNC4)CC3)cc2)c1-c1nnn[nH]1 (stereo not drawn) [Example 795, 4′-[1-(pyrrolidin-3-ylmethyl)piperidin-4-yl]-2-(1H-tetrazol-5-yl)-4-(trifluoromethyl)biphenyl-3-sulfonamide] | 5.23 | 1.563 | 3.125 | 25 | 1.1 | 6.57 | 
10 | NS(=O)(=O)c1c(C(F)(F)F)ccc(-c2ccc(C3CCN(C4CNC4)CC3)cc2)c1-c1nnn[nH]1 [Example 796, 4′-(1-azetidin-3-ylpiperidin-4-yl)-2-(1H-tetrazol-5-yl)-4-(trifluoromethyl)biphenyl-3-sulfonamide] | 2.06 | 6.25 | 6.25 | >200 | 0.345 |  | 18
11 | NS(=O)(=O)c1c(C(F)(F)F)ccc(-c2ccc(C3CCN(C4CC5(CCNCC5)C4)CC3)cc2)c1-c1nnn[nH]1 [Example 797, 4′-[1-(7-azaspiro[3.5]non-2-yl)piperidin-4-yl]-2-(1H-tetrazol-5-yl)-4-(trifluoromethyl)biphenyl-3-sulfonamide] | 5.57 | 3.125 | 3.125 | 25 | 1.51 | 9.92 | 
12 | CNC1CC(N2CCC(c3ccc(-c4ccc(C(F)(F)F)c(S(N)(=O)=O)c4-c4nnn[nH]4)cc3)CC2)C1 (stereo not drawn) [Example 799, 4′-{1-[3-(methylamino)cyclobutyl]piperidin-4-yl}-2-(1H-tetrazol-5-yl)-4-(trifluoromethyl)biphenyl-3-sulfonamide] | 3.89 | 3.125 | 3.125 | >200 | 1.05 | 15 | 
13 | NS(=O)(=O)c1c(C(F)(F)F)ccc(-c2ccc(C3CN(CC4CNC4)C3)cc2)c1-c1nnn[nH]1 [Example 800, 4′-[1-(azetidin-3-ylmethyl)azetidin-3-yl]-2-(1H-tetrazol-5-yl)-4-(trifluoromethyl)biphenyl-3-sulfonamide] | 2.68 | 0.7813 | 6.25 | 12.5 | 5.14 | 14.3 | 
14 | NS(=O)(=O)c1c(C(F)(F)F)ccc(-c2ccc(C3CN(C4CCNC4)C3)cc2)c1-c1nnn[nH]1 (stereo not drawn) [Example 801, 4′-(1-pyrrolidin-3-ylazetidin-3-yl)-2-(1H-tetrazol-5-yl)-4-(trifluoromethyl)biphenyl-3-sulfonamide] | 2.22 | 3.125 | 6.25 | 100 | 2.8 | 9.45 | 
15 | NS(=O)(=O)c1c(C(F)(F)F)ccc(-c2ccc(C3CN(C4CCNCC4)C3)cc2)c1-c1nnn[nH]1 [Example 802, 4′-(1-piperidin-4-ylazetidin-3-yl)-2-(1H-tetrazol-5-yl)-4-(trifluoromethyl)biphenyl-3-sulfonamide] | 3.25 | 6.25 | 6.25 | 100 | 4.27 | 17.2 | 
16 | NS(=O)(=O)c1c(C(F)(F)F)ccc(-c2ccc(C3CN(CCC4CCNCC4)C3)cc2)c1-c1nnn[nH]1 [Example 803, 4′-[1-(2-piperidin-4-ylethyl)azetidin-3-yl]-2-(1H-tetrazol-5-yl)-4-(trifluoromethyl)biphenyl-3-sulfonamide] | 4.87 | 6.25 | 6.25 | 100 | 13 |  | 13.2
17 | NS(=O)(=O)c1c(C(F)(F)F)ccc(-c2ccc(C3CN(C4CC5(CCNCC5)C4)C3)cc2)c1-c1nnn[nH]1 [Example 805, 4′-[1-(7-azaspiro[3.5]non-2-yl)azetidin-3-yl]-2-(1H-tetrazol-5-yl)-4-(trifluoromethyl)biphenyl-3-sulfonamide] | 3.77 | 3.125 | 6.25 | 50 | 7.58 | 19.7 | 
18 | NC1(CN2CC(c3ccc(-c4ccc(C(F)(F)F)c(S(N)(=O)=O)c4-c4nnn[nH]4)cc3)C2)CC1 [Example 806, 4′-{1-[(1-aminocyclopropyl)methyl]azetidin-3-yl}-2-(1H-tetrazol-5-yl)-4-(trifluoromethyl)biphenyl-3-sulfonamide] | 4.68 | 6.25 | 6.25 | 12.5 | 7.67 | 5.02 | 
19 | NC1CC(N2CC(c3ccc(-c4ccc(C(F)(F)F)c(S(N)(=O)=O)c4-c4nnn[nH]4)cc3)C2)C1 (stereo not drawn) [Example 807, 4′-[1-(3-aminocyclobutyl)azetidin-3-yl]-2-(1H-tetrazol-5-yl)-4-(trifluuromethyl)biphenyl-3-sulfonamide] | 3.97 | 1.563 | 6.25 | 25 | 5.16 | 19.9 | 
